Data published in patent publication USRE48097E1, “Cephem compounds, their production and use” (priority 2015, dated 2020).
≈ marks a conversion by molar mass, not a printed value. Where two headings read alike, the source gives them in different places.

How the values were obtained:
Assay type in all cases: cell-based
S. aureus 3136 = experiment: MIC against S. aureus 3136; settings: Table 2, S. aureus 3136, MSSA
Text: (§1) Without limitation, the present cephem compounds alone, or in combination with one or more β-lactamase inhibitors, may provide improved antibacterial efficacy, particularly in antibiotic-resistant bacterial strains. It is believed that the present compounds may be structurally different from known compounds and, as a result, may be more basic in nature. It is an advantage that the present compounds may extend the spectrum of effective bacterial compounds, particularly against previously-resistant bacteria (e.g. ESKAPE organisms), and/or gram negative bacteria, without significant side effects. In a preferred embodiment, the present cephem compound may comprise reference compound ceftazidime, which may be used alone, or in combination with one or more β-lactamase inhibitors, such as NXL-104. As shown, the foregoing composition was tested for minimum inhibitory concentration (MIC, μg/mL) against bacteria listed in Tables 2-3.

S. aureus 3144 = experiment: MIC against S. aureus 3144; settings: Table 2, S. aureus 3144, MSSA
Text: as §1

S. aureus 3147 = experiment: MIC against S. aureus 3147; settings: Table 2, S. aureus 3147, MSSA
Text: as §1

S. pneumoniae ATCC 6301 = experiment: MIC against S. pneumoniae ATCC 6301; settings: Table 2, S. pneumoniae ATCC 6301, Pen S
Text: as §1

S. pneumoniae 2492 = experiment: MIC against S. pneumoniae 2492; settings: Table 2, S. pneumoniae 2492, Pen R
Text: as §1

S. pneumoniae 2404 = experiment: MIC against S. pneumoniae 2404; settings: Table 2, S. pneumoniae 2404, Pen S
Text: as §1

S. pneumoniae 2405 = experiment: MIC against S. pneumoniae 2405; settings: Table 2, S. pneumoniae 2405, Pen S
Text: as §1

E. cloacae 566 = experiment: MIC against E. cloacae 566; settings: Table 2, E. cloacae 566, Caz R, IMP S
Text: as §1

C. freundii 579 = experiment: MIC against C. freundii 579; settings: Table 2, C. freundii 579, Caz R, IMP S
Text: as §1

C. freundii 580 = experiment: MIC against C. freundii 580; settings: Table 2, C. freundii 580, Caz R, IMP S
Text: as §1

C. freundii 2003 = experiment: MIC against C. freundii 2003; settings: Table 2, C. freundii 2003, Caz R, IMP S
Text: as §1

K. pneumoniae 4105 = experiment: MIC against K. pneumoniae 4105; settings: K. pneumoniae 4105, KPC-3, TEM-1, SHV-11
Protocol: (§2) As shown, the foregoing composition was tested for minimum inhibitory concentration (MIC, μg/mL) against bacteria listed in Tables 2-3.

K. pneumoniae 4108 = experiment: MIC against K. pneumoniae 4108; settings: K. pneumoniae 4108, KPC-3, TEM-166, SHV-12, SHV-141
Protocol: as §2

M. morganii 2409 = experiment: MIC against M. morganii 2409; settings: Table 2, M. morganii 2409, High level cephase, β-Lactamase producing
Text: as §1

E. coli 4080 = experiment: MIC against E. coli 4080; settings: Table 2, E. coli 4080, TEM-10
Text: as §1

E. coli 4098 = experiment: MIC against E. coli 4098; settings: Table 2, E. coli 4098, CTX-M-15, TEM-1
Text: as §1

E. coli 4102 = experiment: MIC against E. coli 4102; settings: Table 2, E. coli 4102, CTX-M-14
Text: as §1

K. baumanii 2579 = experiment: MIC against K. baumanii 2579; settings: Table 2, K. baumanii 2579, OXA-25
Text: as §1

E. cloacae 2705 = experiment: MIC against E. cloacae 2705; settings: Table 3, E. cloacae 2705, VIM-1, KPC-3type
Protocol: as §2

E. cloacae 2710 = experiment: MIC against E. cloacae 2710; settings: Table 3, E. cloacae 2710, KPC-3, VIM-1
Protocol: as §2

K. pneumoniae 2690 = experiment: MIC against K. pneumoniae 2690; settings: Table 3, K. pneumoniae 2690, KPC-2
Protocol: as §2

K. pneumoniae 2711 = experiment: MIC against K. pneumoniae 2711; settings: Table 3, K. pneumoniae 2711, KPC-3, VIM-1
Protocol: as §2

K. pneumoniae 2712 = experiment: MIC against K. pneumoniae 2712; settings: Table 3, K. pneumoniae 2712, KPC-3, VIM-1
Protocol: as §2

[1] = Staphylococcus aureus, alone, read-out: MIC
[2] = Streptococcus pneumoniae, alone, read-out: MIC
[3] = Enterobacter cloacae, alone, read-out: MIC
[4] = Citrobacter freundii, alone, read-out: MIC
[5] = Table 2, in combination with NXL-104
[6] = Table 3, in combination with NXL-104
[7] = Escherichia coli, alone, read-out: MIC
[8] = Klebsiella pneumoniae, alone, read-out: MIC

SMILES: CC(C)(O/N=C(\C(=O)N[C@@H]1C(=O)N2C(C(=O)[O-])=C(C[n+]3ccc4c(ccn4Cc4cc(C(=N)N)cs4)c3)CS[C@H]12)c1csc(N)n1)C(=O)O [Example 5, (6R,7R)-7-{[(2Z)-2-(2-Amino-1,3-thiazol-4-yl)-2-{[(2-carboxypropan-2-yl)oxy]imino}acetyl]amino}-3-({1-[(4-carbamimidoylthiophen-2-yl)methyl]-1H-pyrrolo[3,2-c]pyridin-5-ium-5-yl}methyl)-8-oxo-5-thia-1-azabicyclo[4.2.0]oct-2-ene-2-carboxylate]
- MIC (S. aureus 3136; [1]): 2 µg/mL
- MIC (S. aureus 3136; in combination with NXL-104): 2.00 µg/mL
- MIC (S. aureus 3144; [1]): 4 µg/mL
- MIC (S. aureus 3144; in combination with NXL-104): 4.00 µg/mL
- MIC (S. aureus 3147; [1]): 2 µg/mL
- MIC (S. aureus 3147; in combination with NXL-104): 2.00 µg/mL
- MIC (S. pneumoniae ATCC 6301; Streptococcus pneumoniae, ATCC6301, alone, read-out: MIC): ≤ 0.06 µg/mL
- MIC (S. pneumoniae ATCC 6301; in combination with NXL-104): ≤0.06 µg/mL
- MIC (S. pneumoniae 2492; [2]): 2 µg/mL
- MIC (S. pneumoniae 2492; in combination with NXL-104): 2.00 µg/mL
- MIC (S. pneumoniae 2404; [2]): ≤ 0.06 µg/mL
- MIC (S. pneumoniae 2404; in combination with NXL-104): ≤0.06 µg/mL
- MIC (S. pneumoniae 2405; [2]): ≤ 0.06 µg/mL
- MIC (S. pneumoniae 2405; in combination with NXL-104): ≤0.06 µg/mL
- MIC (E. cloacae 566; [3]): 2 µg/mL
- MIC (E. cloacae 566; in combination with NXL-104): 0.50 µg/mL
- MIC (C. freundii 579; [4]): 4 µg/mL
- MIC (C. freundii 579; in combination with NXL-104): 0.25 µg/mL
- MIC (C. freundii 580; [4]): 8 µg/mL
- MIC (C. freundii 580; in combination with NXL-104): 0.25 µg/mL
- MIC (C. freundii 2003; [4]): 8 µg/mL
- MIC (C. freundii 2003; in combination with NXL-104): 0.25 µg/mL
- MIC (K. pneumoniae 4105; Klebsiella pneumoniae, 4105, Table 2, alone, read-out: MIC): 32 µg/mL (≈ 44.2 µM)
- MIC (K. pneumoniae 4105; Klebsiella pneumoniae, 4105, Table 3, alone, read-out: MIC): 32 µg/mL (≈ 44.2 µM)
- MIC (K. pneumoniae 4105; [5]): 1.00 µg/mL
- MIC (K. pneumoniae 4105; [6]): 1 µg/mL
- MIC (K. pneumoniae 4108; Klebsiella pneumoniae, 4108, Table 2, alone, read-out: MIC): 8 µg/mL (≈ 11.1 µM)
- MIC (K. pneumoniae 4108; Klebsiella pneumoniae, 4108, Table 3, alone, read-out: MIC): 32 µg/mL (≈ 44.2 µM)
- MIC (K. pneumoniae 4108; [5]): 0.50 µg/mL
- MIC (K. pneumoniae 4108; [6]): 1 µg/mL
- MIC (M. morganii 2409; Morganella morganii, alone, read-out: MIC): 16 µg/mL
- MIC (M. morganii 2409; in combination with NXL-104): 0.50 µg/mL
- MIC (E. coli 4080; [7]): 16 µg/mL
- MIC (E. coli 4080; in combination with NXL-104): 0.50 µg/mL
- MIC (E. coli 4098; [7]): > 32 µg/mL
- MIC (E. coli 4098; in combination with NXL-104): 0.12 µg/mL
- MIC (E. coli 4102; [7]): 1 µg/mL
- MIC (E. coli 4102; in combination with NXL-104): ≤0.06 µg/mL
- MIC (K. baumanii 2579; alone, read-out: MIC): > 32 µg/mL
- MIC (K. baumanii 2579; in combination with NXL-104): 8.00 µg/mL
- MIC (E. cloacae 2705; [3]): > 32 µg/mL
- MIC (E. cloacae 2705; in combination with NXL-104): >32 µg/mL
- MIC (E. cloacae 2710; [3]): > 32 µg/mL
- MIC (E. cloacae 2710; in combination with NXL-104): >32 µg/mL
- MIC (K. pneumoniae 2690; [8]): 8 µg/mL (≈ 11.1 µM)
- MIC (K. pneumoniae 2690; in combination with NXL-104): .5 µg/mL
- MIC (K. pneumoniae 2711; [8]): 2 µg/mL (≈ 2.76 µM)
- MIC (K. pneumoniae 2711; in combination with NXL-104): 0.25 µg/mL
- MIC (K. pneumoniae 2712; [8]): > 32 µg/mL
- MIC (K. pneumoniae 2712; in combination with NXL-104): 4 µg/mL
